From patent US4956344A, “Method for treatment of lesions in the large intestinal epithelium with a tripeptide” (Hafslund Nycomed A/S, priority 1989, dated 1990)
Several values for one entry are separate records, joined by “and”; a condition that tells them apart may be missing. Equal values may be shown once. Square brackets hold non-standard residues; d marks the D form. Peptide text beside a SMILES is read from it. pGlu = O=C1CC[C@@H](C(=O)O)N1

Key:
[1] = tested on: large intestinal epithelium; assay: Mitotic rate (Colcemid-arrested metaphases) in the large intestinal epithelium after i.p. injection; assay type: in vivo, hairless mice; parameters: mitotic rate in the large intestinal epithelium, Treated group Mean / Mitotic rate, Treated: unit not given here; settings: for cell proliferation in the large intestinal epithelium (mitotic rate), Treated: mean
Description: (§1) All in vivo experiments were performed with hairless mice at 0800-0900 AM. The fractions were suspended in distilled water, slightly acidified (pH=6) and injected i.p. at different doses dependent on the purity of the fraction. The controls received solvent only. The pattern of cell proliferation after injecting the peptide was examined by varying the time between treatment and sacrifice.
Two hours before sacrifice (except for the experiments testing tissue specificity in the kidney) all animals received Colcemid 0.15 mg per animal i.p. ^3 HTdR (tritiated thymidine) was injected 30 minutes before sacrifice (30 μCi per animal i.p.). […]
Mitotic rate: After routine dehydration and paraffin embedding, sections were cut at 5 μm and stained with haematoxylin. Colcemid-arrested mitoses per 500 crypt cells were determined in ten longitudinally cut crypts in ileum and colon. Only crypts that were cut strictly longitudinally were accepted, viz., only those where the lumen of the crypt could be followed from the bottom of the gland to the lumen of the gut. No telophases were seen. The number of accumulated metaphases in epidermis Was determined by counting 25 vision fields of interfollicular epidermis (eyepiece 12.5, objective 40) and expressed as mitoses per vision field per 2h.

[2] = tested on: large intestinal epithelium; assay: Labelling index (3HTdR-labelled crypt cells) in the large intestinal epithelium after i.p. injection; assay type: in vivo, hairless mice; parameters: key to Labelling index, Treated: fraction of labelled cells per 500 crypt cells; settings: for Labelling index, Treated: 10^-12 mole per animal
Description: as §1
(§2) Two hours before sacrifice (except for the experiments testing tissue specificity in the kidney) all animals received Colcemid 0.15 mg per animal i.p. ^3 HTdR (tritiated thymidine) was injected 30 minutes before sacrifice (30 μCi per animal i.p.).
Labelling index: Paraffin sections, cut at 5 μm, were dipped in Kodak-NTB emulsion and exposed for 3 weeks at 0°-4° C., developed, and stained with haematoxylin The number of labelled cells were counted per 500 crypt cells in longitudinally cut crypts as described above. Similarly, the number of labelled cells in 40 vision fields of interfollicular epidermis (eyepiece 12.5, objective 40) was determined. A cell was considered labelled when the number of grains was five or more.

[3] = tested on: epidermis; assay: Tissue specificity: mitotic rate in epidermis (back skin); assay type: in vivo, hairless mice; settings: time and dose levels tested
Description: (§3) To test for possible tissue specificity of the tripeptide the back skin and a defined part of ileum of eight animals were fixed immediately after killing. The mitotic rate (see below) in sections from these tissues was compared with the corresponding values in solvent-treated animals. Unilateral nephrectomy (uNX) was performed in four animals, and the animals were treated with the tripeptide at 18h after surgery. Controls underwent uNX and received solvent only. These animals received Colcemid 3h before sacrifice at 42h. The mitotic rate (number of accumulated metaphases per 1000 cells per 3h) was registered in the outer part of the kidney cortex.
as §2
(§4) Mitotic rate: After routine dehydration and paraffin embedding, sections were cut at 5 μm and stained with haematoxylin. Colcemid-arrested mitoses per 500 crypt cells were determined in ten longitudinally cut crypts in ileum and colon. Only crypts that were cut strictly longitudinally were accepted, viz., only those where the lumen of the crypt could be followed from the bottom of the gland to the lumen of the gut.

[4] = tested on: small intestine; assay: Tissue specificity: mitotic rate in small intestine (ileum); assay type: in vivo, hairless mice; settings: time and dose levels tested
Description: as §3, §2, §4

[5] = tested on: kidney tubular epithelium; assay: Tissue specificity: mitotic rate in kidney cortex after unilateral nephrectomy; assay type: in vivo, hairless mice; settings: proliferation induced by contralateral nephrectomy; treated 18h after surgery, sacrifice at 42h
Description: as §3

[6] = tested on: colon carcinoma cell line HT 29; assay: Proliferation of HT 29 cells, incorporation of tritiated thymidine; assay type: cell-based; settings: for incorporation of 3HTdR, Treated (Mean): 1 % fetal calf serum, 6 hour-period
Description: Cell culture: HT 29 cells, 20000 cells per well in 96-well tissue culture clusters. Medium: RPMI 1640, 1 % fetal calf serum Concentration of the tripeptide 10^-8 M, lyophilized peptide dissolved in medium.
Assay for proliferation: Incorporation of tritiated thymidine (^3 HTdR) 6 hour-period, ^3 HTdR 1 uCi per well.
The tripeptide was added to the culture on the third day (exponential growth), and the incorporation of tritiated thymidine was measured for 6 hour-periods at 16h, 24h, and 40h after the peptide was added to the wells.

## O=C(O)CC[C@H](NC(=O)[C@@H]1CCC(=O)N1)C(=O)N[C@@H](CC(=O)O)C(=O)N[C@@H](CO)C(=O)NCC(=O)O [pGlu-Glu-Asp-Ser-Gly (OH), reference compound] ([pGlu]EDSG-OH)
[1]; 10^-12 mole per animal, doses and times tested
  cell proliferation in the large intestinal epithelium: unchanged

## O=C(O)CNC(=O)[C@H](Cc1c[nH]cn1)NC(=O)[C@@H]1CCC(=O)N1 [pGlu-His-Gly(OH), L-pyroglutamyl-L-histidyl-glycine] ([pGlu]-His-Gly-OH)
[1]; 2-4h after injection, 10^-12 mole per animal i.p.
  number of accumulated metaphases: significantly reduced
[1]; 10^-6 mole per animal i.p.
  cell proliferation in the large intestinal epithelium (mitotic rate), Treated: 0.047
[1]; 10^-9 mole per animal i.p.
  cell proliferation in the large intestinal epithelium (mitotic rate), Treated: 0.044
[1]; 10^-11 mole per animal
  inhibition of mitotic rate in the large intestinal epithelium: smaller, but significant inhibition
[1]; 10^-11 mole per animal i.p., p<0.05
  cell proliferation in the large intestinal epithelium (mitotic rate), Treated: 0.021
[1]; 10^-12 mole per animal
  reduction of the number of accumulated metaphases: more than 50%
[1]; 10^-12 mole per animal i.p., p<0.05
  cell proliferation in the large intestinal epithelium (mitotic rate), Treated: 0.018
[1]; 10^-12 mole per animal, synthetic peptide, seven identical experiments in mice, one line each, p<0.05
  mitotic rate in the large intestinal epithelium, Treated group Mean: 0.018 and 0.021 and 0.026 and 0.043 and 0.025
[1]; 10^-15 mole per animal i.p.
  cell proliferation in the large intestinal epithelium (mitotic rate), Treated: 0.042
[1]; 10^-18 mole per animal i.p.
  cell proliferation in the large intestinal epithelium (mitotic rate), Treated: 0.035
[1]; 2 h after single i.p. injection, 10^-12 mole per animal
  Mitotic rate, Treated: 0.021
[1]; 4 h after single i.p. injection, 10^-12 mole per animal
  Mitotic rate, Treated: 0.018
[1]; 6 h after single i.p. injection, 10^-12 mole per animal
  Mitotic rate, Treated: 0.027
[1]; 8 h after single i.p. injection, 10^-12 mole per animal
  Mitotic rate, Treated: 0.031
[1]; 12 h after single i.p. injection, 10^-12 mole per animal
  Mitotic rate, Treated: 0.019
[1]; 15 h after single i.p. injection, 10^-12 mole per animal
  Mitotic rate, Treated: 0.010
[1]; 18 h after single i.p. injection, 10^-12 mole per animal
  Mitotic rate, Treated: 0.027
[1]; 24 h after single i.p. injection, 10^-12 mole per animal
  Mitotic rate, Treated: 0.057
[1]; approximately 15h after injection, less pronounced than the first, 10^-12 mole per animal
  mitotic rate, second effect: new Wave of inhibition
[1]; doses higher than 10^-11 or lower than 10^-12 mole per animal
  decrease in cell proliferation in the large intestinal epithelium: no significant decrease
[1]; thereafter, for a period of 6-8h, not formally significant, 10^-12 mole per animal
  mitotic count in the treated group: exceeded the control level
[2]; 15 and 18 h after treatment
  reduced LI, significance: not statistically significant
[2]; 2 h after single i.p. injection
  Labelling index, Treated: 0.086
[2]; 4h after injection
  labelling index (LI): pronounced reduction
[2]; 4 h after single i.p. injection
  Labelling index, Treated: 0.067
[2]; 6 h after single i.p. injection
  Labelling index, Treated: 0.067
[2]; 8 h after single i.p. injection
  Labelling index, Treated: 0.058
[2]; 12 h after single i.p. injection
  Labelling index, Treated: 0.048
[2]; 15 h after single i.p. injection
  Labelling index, Treated: 0.068
[2]; 18 h after single i.p. injection
  Labelling index, Treated: 0.11
[2]; 24 h after single i.p. injection
  Labelling index, Treated: 0.098
[2]; approximately 8h after the first decrease
  number of labelled cells, second period: second inhibition of the same degree
[3]
  inhibitory effect on cell proliferation in epidermis: No inhibitory effect
[4]
  inhibitory effect on cell proliferation in the small intestine: No inhibitory effect
[5]
  inhibitory effect on cell proliferation in kidney tubular epithelium: No inhibitory effect
[6]; 10^-8 M, 16 h after addition of peptide
  incorporation of 3HTdR, Treated (Mean): 12177
[6]; 10^-8 M, 24 h after addition of peptide
  incorporation of 3HTdR, Treated (Mean): 9080
[6]; 10^-8 M, 40 h after addition of peptide
  incorporation of 3HTdR, Treated (Mean): 12485
[6]; 10^-8 M, 24-30h after the treatment, 1 % serum
  incorporation of 3HTdR: significant reduction
[6]; 10^-10 M
  inhibition of 3HTdR incorporation: less, but still significant inhibition
[6]; serum addition increased to 10 &
  growth of HT 29 cells with increased serum: varied between significant inhibition of growth and no effect
